Earlier results, collected in patent publication US10086029B2, “Fermented plant extracts, methods of production and uses” (KEFIPLANT INC., priority 2006, dated 2018).

System: xanthine oxidase
Conditions: glycoside versus aglycone, literature study

With `C[C@@H]1O[C@@H](OC[C@H]2O[C@@H](Oc3c(-c4ccc(O)c(O)c4)oc4cc(O)cc(O)c4c3=O)[C@H](O)[C@@H](O)[C@@H]2O)[C@H](O)[C@H](O)[C@H]1O` [rutine] as the molecule, how does the “Activity as inhibitor of xanthine oxidase relative to quercetine” value read?
Its value is “nearly ten times less active than quercetine”.
